Measured values: patent publication US9066861B2 (priority 2009, dated 2015)

Key:
Type in all cases: physicochemical
[1] = Stability analysis of raw API by titration method (BP); settings: after 3 Months
Description: (§1) In both studies the * Initial denotes the results of the samples tested at the time of receipt of the API from the supplier.

[2] = Stability analysis of raw API by stability indicating HPLC method; settings: for Assay (%) HPLC / Percentage Drop (%) HPLC / loss in 3 Months: raw API; for Assay (%) HPLC / Percentage Drop (%) HPLC: after 3 Months
Description: as §1

[3] = Assay (%) test of APIs in cream, stability study, HPLC method
Method: The stability of the product is confirmed by the stability studies performed for 3/6 months as per ICH guidelines.
APIs-stability experiments were carried out (see tables 3-20) using several products that are representative of the present invention. Tests were carried out to observe (or measure as appropriate) the physical appearance of the product, the pH value and assay of the APIs over a period of time. […] Betamethasone Valerate—0.12% (w/w) • ii. Fluticasone Propionate—0.05% (w/w) • iii. Mometasone Furoate—0.1% (w/w) • iv. Dexamethasone Acetate—0.1% (w/w) • v. Hydrocortisone Acetate—1.0% (w/w) • vi. Clobetasol Propionate—0.05% (w/w) • vii. Beclomethasone Dipropionate—0.025% (w/w) • viii. Betamethasone Dipropionate—0.05% (w/w) wherein all percentages are with respect to the final formulation.
The product used for the Stability Studies tests contained approximately 10% extra APIs (overages).

## CC(=O)O[C@H]1C[C@@]2(C)[C@@H](C[C@@H](O)[C@H]3[C@@]4(C)CC[C@@H](O)[C@@H](C)[C@@H]4CC[C@@]32C)/C1=C(\CCC=C(C)C)C(=O)O [Fusidic acid]
[1]; 45° C. (C) closed Petri dish
  Assay (%) Titration: 99.10%
  Percentage Drop (%) Titration: 1.50%
[1]; 45° C. (O) open Petri dish
  Assay (%) Titration: 98.52%
  Percentage Drop (%) Titration: 2.08%
[1]; RT (C) closed Petri dish
  Assay (%) Titration: 99.02%
  Percentage Drop (%) Titration: 1.58%
[1]; RT (O) open Petri dish
  Assay (%) Titration: 99.21%
  Percentage Drop (%) Titration: 1.39%
[2]; raw API tested at the time of receipt from the supplier, method not stated
  Initial (%): 100.6%
[2]; 45° C. (C) closed Petri dish
  Assay (%) HPLC: 92.12%
  Percentage Drop (%) HPLC: 8.48%
[2]; 45° C. (O) open Petri dish
  Assay (%) HPLC: 89.52%
  Percentage Drop (%) HPLC: 11.08%
[2]; 45° C. (open condition)
  loss in 3 Months: about 11%
[2]; RT (C) closed Petri dish
  Assay (%) HPLC: 94.37%
  Percentage Drop (%) HPLC: 6.23%
[2]; RT (O) open Petri dish
  Assay (%) HPLC: 92.93%
  Percentage Drop (%) HPLC: 7.67%
[2]; room temperature (open condition)
  loss in 3 Months: about 7.7%
[2]; raw APIs, Tables 1 and 2
  stability as an API, Sodium Fusidate compared with Fusidic acid: deteriorates more rapidly than Sodium Fusidate
[3]; in cream Batch No. HAS-01, 25° C. 60% RH, 1st Month
  Assay (%): 108.50%
[3]; in cream Batch No. HAS-01, 25° C. 60% RH, 2nd Month
  Assay (%): 108.44%
[3]; in cream Batch No. HAS-01, 25° C. 60% RH, 3rd Month
  Assay (%): 108.36%
[3]; in cream Batch No. HAS-01, 30° C. 65% RH, 1st Month
  Assay (%): 108.51%
[3]; in cream Batch No. HAS-01, 30° C. 65% RH, 2nd Month
  Assay (%): 108.42%
[3]; in cream Batch No. HAS-01, 30° C. 65% RH, 3rd Month
  Assay (%): 108.32%
[3]; in cream Batch No. HAS-01, 40° C. 75% RH, 1st Month
  Assay (%): 108.48%
[3]; in cream Batch No. HAS-01, 40° C. 75% RH, 2nd Month
  Assay (%): 108.34%
[3]; in cream Batch No. HAS-01, 40° C. 75% RH, 3rd Month
  Assay (%): 108.20%
[3]; in cream Batch No. HAS-01, Freezthaw, 1st Month
  Assay (%): 108.31%
[3]; in cream Batch No. HAS-01, Initial
  Assay (%): 108.52%
[3]; in cream Batch No. HAS-01, Temperature cycling, 1st Month
  Assay (%): 108.40%
[3]; in cream Batch No. SBV-01, 25° C. 60% RH, 1st Month
  Assay (%): 108.54%
[3]; in cream Batch No. SBV-01, 25° C. 60% RH, 2nd Month
  Assay (%): 108.42%
[3]; in cream Batch No. SBV-01, 25° C. 60% RH, 3rd Month
  Assay (%): 108.40%
[3]; in cream Batch No. SBV-01, 30° C. 65% RH, 1st Month
  Assay (%): 108.53%
[3]; in cream Batch No. SBV-01, 30° C. 65% RH, 2nd Month
  Assay (%): 108.41%
[3]; in cream Batch No. SBV-01, 30° C. 65% RH, 3rd Month
  Assay (%): 108.36%
[3]; in cream Batch No. SBV-01, 40° C. 75% RH, 1st Month
  Assay (%): 108.46%
[3]; in cream Batch No. SBV-01, 40° C. 75% RH, 2nd Month
  Assay (%): 108.16%
[3]; in cream Batch No. SBV-01, 40° C. 75% RH, 3rd Month
  Assay (%): 108.11%
[3]; in cream Batch No. SBV-01, Freezthaw, 1st Month
  Assay (%): 108.01%
[3]; in cream Batch No. SBV-01, Initial
  Assay (%): 108.57%
[3]; in cream Batch No. SBV-01, Temperature cycling, 1st Month
  Assay (%): 107.53%
[3]; in cream Batch No. SFB-01, 25° C. 60% RH, 1st Month
  Assay (%): 108.22%
[3]; in cream Batch No. SFB-01, 25° C. 60% RH, 2nd Month
  Assay (%): 108.18%
[3]; in cream Batch No. SFB-01, 25° C. 60% RH, 3rd Month
  Assay (%): 108.15%
[3]; in cream Batch No. SFB-01, 30° C. 65% RH, 1st Month
  Assay (%): 108.25%
[3]; in cream Batch No. SFB-01, 30° C. 65% RH, 2nd Month
  Assay (%): 108.22%
[3]; in cream Batch No. SFB-01, 30° C. 65% RH, 3rd Month
  Assay (%): 108.18%
[3]; in cream Batch No. SFB-01, 40° C. 75% RH, 1st Month
  Assay (%): 108.25%
[3]; in cream Batch No. SFB-01, 40° C. 75% RH, 2nd Month
  Assay (%): 108.20%
[3]; in cream Batch No. SFB-01, 40° C. 75% RH, 3rd Month
  Assay (%): 108.12%
[3]; in cream Batch No. SFB-01, Freezthaw, 1st Month
  Assay (%): 108.11%
[3]; in cream Batch No. SFB-01, Initial
  Assay (%): 108.28%
[3]; in cream Batch No. SFB-01, Temperature cycling, 1st Month
  Assay (%): 108.23%
[3]; in cream Batch No. SFC-01, 25° C. 60% RH, 1st Month
  Assay (%): 108.64%
[3]; in cream Batch No. SFC-01, 25° C. 60% RH, 2nd Month
  Assay (%): 108.52%
[3]; in cream Batch No. SFC-01, 25° C. 60% RH, 3rd Month
  Assay (%): 108.48%
[3]; in cream Batch No. SFC-01, 25° C. 60% RH, 6th Month
  Assay (%): 108.38%
[3]; in cream Batch No. SFC-01, 30° C. 65% RH, 1st Month
  Assay (%): 108.53%
[3]; in cream Batch No. SFC-01, 30° C. 65% RH, 2nd Month
  Assay (%): 108.31%
[3]; in cream Batch No. SFC-01, 30° C. 65% RH, 3rd Month
  Assay (%): 108.26%
[3]; in cream Batch No. SFC-01, 30° C. 65% RH, 6th Month
  Assay (%): 108.22%
[3]; in cream Batch No. SFC-01, 40° C. 75% RH, 1st Month
  Assay (%): 108.56%
[3]; in cream Batch No. SFC-01, 40° C. 75% RH, 2nd Month
  Assay (%): 108.36%
[3]; in cream Batch No. SFC-01, 40° C. 75% RH, 3rd Month
  Assay (%): 108.21%
[3]; in cream Batch No. SFC-01, 40° C. 75% RH, 6th Month
  Assay (%): 108.18%
[3]; in cream Batch No. SFC-01, Freezthaw, 1st Month
  Assay (%): 108.21%
[3]; in cream Batch No. SFC-01, Initial
  Assay (%): 108.68%
[3]; in cream Batch No. SFC-01, Temperature cycling, 1st Month
  Assay (%): 108.10%
[3]; in cream Batch No. SFD-01, 25° C. 60% RH, 1st Month
  Assay (%): 108.60%
[3]; in cream Batch No. SFD-01, 25° C. 60% RH, 2nd Month
  Assay (%): 108.54%
[3]; in cream Batch No. SFD-01, 25° C. 60% RH, 3rd Month
  Assay (%): 108.46%
[3]; in cream Batch No. SFD-01, 30° C. 65% RH, 1st Month
  Assay (%): 108.63%
[3]; in cream Batch No. SFD-01, 30° C. 65% RH, 2nd Month
  Assay (%): 108.52%
[3]; in cream Batch No. SFD-01, 30° C. 65% RH, 3rd Month
  Assay (%): 108.32%
[3]; in cream Batch No. SFD-01, 40° C. 75% RH, 1st Month
  Assay (%): 108.58%
[3]; in cream Batch No. SFD-01, 40° C. 75% RH, 2nd Month
  Assay (%): 108.44%
[3]; in cream Batch No. SFD-01, 40° C. 75% RH, 3rd Month
  Assay (%): 108.30%
[3]; in cream Batch No. SFD-01, Freezthaw, 1st Month
  Assay (%): 108.41%
[3]; in cream Batch No. SFD-01, Initial
  Assay (%): 108.62%
[3]; in cream Batch No. SFD-01, Temperature cycling, 1st Month
  Assay (%): 108.52%
[3]; in cream Batch No. SFM-01, 25° C. 60% RH, 1st Month
  Assay (%): 108.24%
[3]; in cream Batch No. SFM-01, 25° C. 60% RH, 2nd Month
  Assay (%): 108.22%
[3]; in cream Batch No. SFM-01, 25° C. 60% RH, 3rd Month
  Assay (%): 108.20%
[3]; in cream Batch No. SFM-01, 25° C. 60% RH, 6th Month
  Assay (%): 107.95%
[3]; in cream Batch No. SFM-01, 30° C. 65% RH, 1st Month
  Assay (%): 108.23%
[3]; in cream Batch No. SFM-01, 30° C. 65% RH, 2nd Month
  Assay (%): 108.21%
[3]; in cream Batch No. SFM-01, 30° C. 65% RH, 3rd Month
  Assay (%): 108.16%
[3]; in cream Batch No. SFM-01, 30° C. 65% RH, 6th Month
  Assay (%): 107.92%
[3]; in cream Batch No. SFM-01, 40° C. 75% RH, 1st Month
  Assay (%): 108.26%
[3]; in cream Batch No. SFM-01, 40° C. 75% RH, 2nd Month
  Assay (%): 108.14%
[3]; in cream Batch No. SFM-01, 40° C. 75% RH, 3rd Month
  Assay (%): 108.08%
[3]; in cream Batch No. SFM-01, 40° C. 75% RH, 6th Month
  Assay (%): 107.89%
[3]; in cream Batch No. SFM-01, Freezthaw, 1st Month
  Assay (%): 108.11%
[3]; in cream Batch No. SFM-01, Initial
  Assay (%): 108.27%
[3]; in cream Batch No. SFM-01, Temperature cycling, 1st Month
  Assay (%): 107.63%
[3]; in cream Batch No. SPC-01, 25° C. 60% RH, 1st Month
  Assay (%): 108.30%
[3]; in cream Batch No. SPC-01, 25° C. 60% RH, 2nd Month
  Assay (%): 108.24%
[3]; in cream Batch No. SPC-01, 25° C. 60% RH, 3rd Month
  Assay (%): 108.15%
[3]; in cream Batch No. SPC-01, 25° C. 60% RH, 6th Month
  Assay (%): 108.08%
[3]; in cream Batch No. SPC-01, 30° C. 65% RH, 1st Month
  Assay (%): 108.31%
[3]; in cream Batch No. SPC-01, 30° C. 65% RH, 2nd Month
  Assay (%): 108.32%
[3]; in cream Batch No. SPC-01, 30° C. 65% RH, 3rd Month
  Assay (%): 108.22%
[3]; in cream Batch No. SPC-01, 30° C. 65% RH, 6th Month
  Assay (%): 108.11%
[3]; in cream Batch No. SPC-01, 40° C. 75% RH, 1st Month
  Assay (%): 108.33%
[3]; in cream Batch No. SPC-01, 40° C. 75% RH, 2nd Month
  Assay (%): 108.24%
[3]; in cream Batch No. SPC-01, 40° C. 75% RH, 3rd Month
  Assay (%): 108.10%
[3]; in cream Batch No. SPC-01, 40° C. 75% RH, 6th Month
  Assay (%): 108.01%
[3]; in cream Batch No. SPC-01, Freezthaw, 1st Month
  Assay (%): 108.22%
[3]; in cream Batch No. SPC-01, Initial
  Assay (%): 108.38%
[3]; in cream Batch No. SPC-01, Temperature cycling, 1st Month
  Assay (%): 108.28%
